Patent US20160333419A1, “GENE SIGNATURES ASSOCIATED WITH SENSITIVITY TO MDM2 INHIBITORS” (DAIICHI SANKYO COMPANY, LIMITED, priority 2014, published 2016)
pIC50: −log10 of the molar value.

Columns and labels:
Assay in all cases: OncoPanel cytotoxicity assay
Format in all cases: cell-based
A172 = settings: Homo sapiens, A 172, 72 hour incubation
In short: (§1)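 Cells grown in RPMI 1640 with 10% FBS (or a special medium) at 37° C, 5% CO2 were treated 24 hours after seeding for 72 hours with 10 concentrations (3.16-fold dilutions, 0.1% DMSO final). Nuclei were dye-stained and imaged; IC50 was fit from percent of control relative cell count.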

A431 = settings: Homo sapiens, A-431, 72 hour incubation
In short: as §1

AU565 = settings: Homo sapiens, 72 hour incubation
In short: as §1

BxPC-3 = settings: Homo sapiens, 72 hour incubation
In short: as §1

CAMA-1 = settings: Homo sapiens, 72 hour incubation
In short: as §1

CHL-1 = settings: Homo sapiens, 72 hour incubation
In short: as §1

CHP-212 = settings: Homo sapiens, 72 hour incubation
In short: as §1

Cal 27 = settings: Homo sapiens, 72 hour incubation
In short: as §1

DB = settings: Homo sapiens, 72 hour incubation
In short: as §1

DMS53 = settings: Homo sapiens, DMS-53, 72 hour incubation
In short: as §1

DOHH-2 = settings: Homo sapiens, 72 hour incubation
In short: as §1

G-402 = settings: Homo sapiens, 72 hour incubation
In short: as §1

H4 = settings: Homo sapiens, 72 hour incubation
In short: as §1

HT-1080 = settings: Homo sapiens, 72 hour incubation
In short: as §1

HeLa = settings: Homo sapiens, 72 hour incubation
In short: as §1

Hs 695T = settings: Homo sapiens, 72 hour incubation
In short: as §1

HuCCT1 = settings: Homo sapiens, HuCCT-1, 72 hour incubation
In short: as §1

L-428 = settings: Homo sapiens, 72 hour incubation
In short: as §1

LS1034 = settings: Homo sapiens, LS-1034, 72 hour incubation
In short: as §1

MDA MB 453 = settings: Homo sapiens, 72 hour incubation
In short: as §1

MOLT-3 = settings: Homo sapiens, 72 hour incubation
In short: as §1

MX1 = settings: Homo sapiens, 72 hour incubation
In short: as §1

Mia PaCa-2 = settings: Homo sapiens, 72 hour incubation
In short: as §1

NCI-H295R = settings: Homo sapiens, 72 hour incubation
In short: as §1

NCI-H460 = settings: Homo sapiens, 72 hour incubation
In short: as §1

PC-3 = settings: Homo sapiens, 72 hour incubation
In short: as §1

RL95-2 = settings: Homo sapiens, 72 hour incubation
In short: as §1

SCC-25 = settings: Homo sapiens, 72 hour incubation
In short: as §1

SR = settings: Homo sapiens, 72 hour incubation
In short: as §1

SW-13 = settings: Homo sapiens, SW13, 72 hour incubation
In short: as §1

SW1353 = settings: Homo sapiens, 72 hour incubation
In short: as §1

SW480 = settings: Homo sapiens, 72 hour incubation
In short: as §1

SW900 = settings: Homo sapiens, 72 hour incubation
In short: as §1

SW962 = settings: Homo sapiens, SW 962, 72 hour incubation
In short: as §1

SaOS2 = settings: Homo sapiens, SAOS-2, 72 hour incubation
In short: as §1

Thp1 = settings: Homo sapiens, THP-1, 72 hour incubation
In short: as §1

UM-UC-3 = settings: Homo sapiens, UMUC3, 72 hour incubation
In short: as §1

WiDr = settings: Homo sapiens, 72 hour incubation
In short: as §1

| Compound | pIC50 (A172) | pIC50 (A431) | pIC50 (AU565) | pIC50 (BxPC-3) | pIC50 (CAMA-1) | pIC50 (CHL-1) | pIC50 (CHP-212) | pIC50 (Cal 27) | pIC50 (DB) | pIC50 (DMS53) | pIC50 (DOHH-2) | pIC50 (G-402) | pIC50 (H4) | pIC50 (HT-1080) | pIC50 (HeLa) | pIC50 (Hs 695T) | pIC50 (HuCCT1) | pIC50 (L-428) | pIC50 (LS1034) | pIC50 (MDA MB 453) | further results |
| --- | --- | --- | --- | --- | --- | --- | --- | --- | --- | --- | --- | --- | --- | --- | --- | --- | --- | --- | --- | --- | --- |
| CC[C@@H]1CNC2(CC2)CN1C(=O)[C@@H]1C[C@@H](F)CN1C(=O)C1=C(C(C)C)N2C(=N[C@@](C)(c3ccc(Cl)nc3)[C@H]2c2ccc(Cl)c(F)c2)S1 [Compound A, [(5R,6S)-5-(4-Chloro-3-fluorophenyl)-6-(6-chloropyridin-3-yl)-6-methyl-3-(propan-2-yl)-5,6-dihydroimidazo[2,1-b][1,3]thiazol-2-yl][(2S,4R)-2-{[(6R)-6-ethyl-4,7-diazaspiro[2.5]oct-7-yl]carbonyl}-4-fluoropyrrolidin-1-yl]methanone] | 6.10 | < 4.40 | 4.63 | < 4.40 | < 4.40 | < 4.40 | 6.71 | < 4.40 | < 4.40 | 4.42 | 6.91 | 6.25 | 6.76 | 6.55 | < 4.40 | 5.89 | < 4.40 | < 4.40 | < 4.40 | 4.48 | pIC50 (MOLT-3): 6.22; pIC50 (MX1): 4.41; pIC50 (Mia PaCa-2): < 4.40; pIC50 (NCI-H295R): < 4.40; pIC50 (NCI-H460): 6.29; pIC50 (PC-3): < 4.40; pIC50 (RL95-2): 4.86; pIC50 (SCC-25): < 4.40; pIC50 (SR): 6.59; pIC50 (SW-13): 5.08; pIC50 (SW1353): 5.77; pIC50 (SW480): < 4.40; pIC50 (SW900): < 4.40; pIC50 (SW962): < 4.40; pIC50 (SaOS2): < 4.40; pIC50 (Thp1): < 4.40; pIC50 (UM-UC-3): < 4.40; pIC50 (WiDr): 4.46 |
| CC1(C)CCC2(CC1)N[C@@H](C(=O)N[C@@H]1CC[C@@H](C(N)=O)OC1)[C@H](c1ccnc(Cl)c1F)[C@]21C(=O)Nc2cc(Cl)ccc21 [Compound B, (3′R,4′S,5′R)—N-[(3R,6S)-6-carbamoyltetrahydro-2H-pyran-3-yl]-6″-chloro-4′-(2-chloro-3-fluoropyridin-4-yl)-4,4-dimethyl-2″-oxo-1″,2″-dihydrodispiro[cyclohexane-1,2′-pyrrolidine-3′,3″-indole]-5′-carboxamide] | 7.16 | < 5.00 | < 5.00 | < 5.00 | < 5.00 | 5.04 | 7.53 | < 5.00 | 5.22 | < 5.00 | 7.54 | 7.58 | 7.62 | 7.21 | < 5.00 | 6.76 | < 5.00 | < 5.00 | < 5.00 | 5.03 | pIC50 (MOLT-3): 7.48; pIC50 (MX1): 5.04; pIC50 (Mia PaCa-2): 5.14; pIC50 (NCI-H295R): < 5.00; pIC50 (NCI-H460): 7.18; pIC50 (PC-3): < 5.00; pIC50 (RL95-2): 5.43; pIC50 (SCC-25): 5.01; pIC50 (SR): 7.58; pIC50 (SW-13): 5.07; pIC50 (SW1353): 7.07; pIC50 (SW480): < 5.00; pIC50 (SW900): < 5.00; pIC50 (SW962): < 5.00; pIC50 (SaOS2): < 5.00; pIC50 (Thp1): < 5.00; pIC50 (UM-UC-3): < 5.00; pIC50 (WiDr): 5.25 |
